The source of these data is ChEMBL document CHEMBL1201862, “PubChem BioAssay data set” (2004).

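Values below derive from 48-hour exposures of cells grown in 96-well plates, with endpoints linearly interpolated between the two concentrations bracketing the appropriate inhibition level. The concentration for 50% growth inhibition is given as GI50.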 The source made the active and inactive calls. No stated cut-off is given here; in the data, active = GI50 up to about 1.1 µM and inactive = higher.

Among the test systems are BT-549; CAKI-1; CCRF-CEM; COLO 205; HCC 2998; HCT-15; HL-60; HOP-92; IGROV-1; K562; MCF7; MDA-MB-231; MOLT-4; OVCAR-4; PC-3; RXF 393; SF-268; SNB-19; TK-10; U-251.
Holding throughout (assay): growth of human tumour cells (NCI), 48 h

With `C=CCn1c(=O)c(C)cn(/C(=C/C(=O)OCC)C(=O)OCC)c1=O`, the GI50 in the assay with BT-549 is 16.2 µM (inactive); with CAKI-1, 1.85 µM (inactive); with CCRF-CEM it was 1.42 µM (inactive); in the assay with COLO 205, 4.55 µM (inactive); in the assay with HCC 2998, 17.4 µM (inactive); in the assay on HCT-15, 2.97 µM. The GI50 in the assay on HL-60 is 2.19 µM (inactive); in the assay on HOP-92 it was 3.52 µM (inactive); in the assay on IGROV-1, 16.4 µM (inactive); with K562 it was 4.19 µM (inactive); with MCF7 it was 4.34 µM (inactive); with MDA-MB-231 it was 15.5 µM (inactive). Also, the GI50 was 5.87 µM (inactive) in the assay on MOLT-4; 18.3 µM (inactive) in the assay with OVCAR-4; 14.8 µM (inactive) in the assay on PC-3; 14 µM (inactive) in the assay with RXF 393; 18.9 µM (inactive) with SF-268; 46.9 µM (inactive) in the assay on SNB-19. Further, the figures for the GI50 in the assay with TK-10 and in the assay with U-251 were 15.4 µM (inactive) and 14.4 µM (inactive), respectively.

Take `CCOc1ccc2nc3nc(O)nc(C)c3c(NC(C)(CO)CO)c2c1`: the GI50 in the assay on BT-549 was > 100 µM (inactive); in the assay on CAKI-1 it was > 100 µM (inactive); in the assay on CCRF-CEM, > 100 µM (inactive); in the assay with COLO 205, > 100 µM (inactive); in the assay on HCC 2998, > 100 µM (inactive); with HCT-15, above 100 µM. For the same molecule, the GI50 in the assay with HL-60 is > 100 µM (inactive); in the assay with HOP-92, > 100 µM (inactive); with IGROV-1, > 100 µM (inactive); with K562, > 100 µM (inactive); in the assay on MCF7 it was 4.08 µM (inactive); in the assay with MDA-MB-231 it was > 100 µM (inactive). The GI50 in the assay with MOLT-4, with OVCAR-4, with PC-3, in the assay on RXF 393, in the assay on SF-268 and in the assay with SNB-19 was > 100 µM (inactive) each time. Further, the GI50 with TK-10 and with U-251 was > 100 µM (inactive) in each case.

Regarding `CN(C)CCNC(=O)c1c(O)ccc2c1c1c(n2CCc2ccccc2)C(=O)c2ccccc2C1=O`, the GI50 in the assay with BT-549 was 16.1 µM (inactive); in the assay on CAKI-1 it was 7.08 µM (inactive); in the assay on CCRF-CEM it was 0.826 µM (active); in the assay on COLO 205, 15.8 µM (inactive); in the assay with HCC 2998, 1.22 µM (inactive); with HCT-15, 4.47 µM. Also, the GI50 was 9.18 µM (inactive) with HL-60; 8.97 µM (inactive) in the assay on HOP-92; 8.47 µM (inactive) in the assay with IGROV-1; 2.39 µM (inactive) with K562; 3.37 µM (inactive) in the assay on MCF7; 5.27 µM (inactive) with MDA-MB-231. The GI50 was 4.42 µM (inactive) in the assay with MOLT-4; 11.6 µM (inactive) in the assay on OVCAR-4; 12 µM (inactive) in the assay with PC-3; 0.302 µM (active) in the assay with RXF 393; 4.15 µM (inactive) in the assay on SF-268; 9.68 µM (inactive) with SNB-19. For the same molecule, the GI50 in the assay with TK-10 was 7.93 µM (inactive); in the assay on U-251, 4.4 µM (inactive).

With `CN(C(=O)c1ccc2c(c1)sc1c(=O)n(C)c3ccccc3c12)c1ccccc1`, the GI50 with BT-549 was > 100 µM (inactive); with CAKI-1 it was > 100 µM (inactive); with CCRF-CEM, > 100 µM (inactive); in the assay on COLO 205, > 100 µM (inactive); in the assay with HCC 2998, > 100 µM (inactive); in the assay on HCT-15 it was above 100 µM. The GI50 in the assay with HL-60, in the assay with HOP-92, in the assay on IGROV-1, in the assay with K562, in the assay on MCF7 and with MDA-MB-231 was > 100 µM (inactive) each time. The GI50 in the assay on MOLT-4, with OVCAR-4, with PC-3, with RXF 393, with SNB-19 and in the assay with TK-10 was > 100 µM (inactive) in each case. In addition, the GI50 in the assay on U-251 was 50 µM (inactive).

As to `COc1ccc(-c2c(C#N)c(=O)nc(SC)n2C2OCC(OC(C)=O)C(OC(C)=O)C2OC(C)=O)cc1` (stereo not given), the GI50 in the assay on BT-549 was 68.2 µM (inactive); in the assay on CAKI-1 it was > 100 µM (inactive); in the assay with CCRF-CEM it was 29 µM (inactive); in the assay on COLO 205, > 100 µM (inactive); with HCC 2998 it was > 100 µM (inactive); with HCT-15, 34.8 µM. The GI50 in the assay with HL-60 is 22.2 µM (inactive); in the assay on HOP-92, > 100 µM (inactive); with IGROV-1, > 100 µM (inactive); in the assay with K562 it was 18.1 µM (inactive); in the assay with MCF7, > 100 µM (inactive); in the assay on MDA-MB-231, 58.7 µM (inactive). Besides, the GI50 in the assay on MOLT-4 is 21.3 µM (inactive); in the assay on OVCAR-4, > 100 µM (inactive); with PC-3, 47.3 µM (inactive); with RXF 393, > 100 µM (inactive); in the assay with SF-268, 55 µM (inactive); in the assay on SNB-19 it was 91.8 µM (inactive). The values for the GI50 with TK-10 and in the assay with U-251 were > 100 µM (inactive) and 57.8 µM (inactive), respectively.

In the case of `C[C@]12CC[C@H]3[C@@H](CCC4=C[C@@H](N5CCCC5)CC[C@@]43C)[C@@H]1C/C(=C\c1ccncc1)[C@@H]2O`, the GI50 in the assay on BT-549 is 18.3 µM (inactive); in the assay on CAKI-1, 28.8 µM (inactive); in the assay on CCRF-CEM, 0.445 µM (active); in the assay with COLO 205, 6.32 µM (inactive); with HCC 2998 it was 5.07 µM (inactive); in the assay with HCT-15, 8.43 µM. For the same molecule, the GI50 with HL-60 was 16 µM (inactive); in the assay on HOP-92, 15.9 µM (inactive); in the assay with IGROV-1, 20.6 µM (inactive); with K562, 3.24 µM (inactive); in the assay with MCF7 it was 12.8 µM (inactive); in the assay on MDA-MB-231, 13.9 µM (inactive). For the same molecule, the GI50 with MOLT-4 was 7.73 µM (inactive); with OVCAR-4 it was 18 µM (inactive); with PC-3, 13.6 µM (inactive); in the assay with RXF 393 it was 5.16 µM (inactive); in the assay on SF-268 it was 16.5 µM (inactive); in the assay on SNB-19, 14.5 µM (inactive). The GI50 in the assay with TK-10 is 13.2 µM (inactive); in the assay with U-251, 12.6 µM (inactive).

As for `C[C@H]1C/C=C/[C@H]2[C@@H]3O[C@]3(C)[C@@H](C)[C@H]3[C@H](Cc4ccccc4)NC(=O)[C@]32OC(=O)O/C=C/[C@@](C)(O)C1=O` [CYTOCHALASIN E], the GI50 in the assay on BT-549 was 0.0392 µM (active); in the assay with CAKI-1, 0.0132 µM (active); in the assay with CCRF-CEM it was 0.021 µM (active); in the assay on HCC 2998, 0.138 µM (active); with HCT-15, 0.0834 µM; with HL-60, 0.0838 µM (active). Moreover, the GI50 was 0.0239 µM (active) with HOP-92; 1.72 µM (inactive) in the assay on K562; 0.0292 µM (active) with MCF7; < 0.01 µM (active) in the assay with MDA-MB-231; 8.59 µM (inactive) in the assay with MOLT-4; 0.0262 µM (active) in the assay on OVCAR-4. The GI50 is 0.0141 µM (active) with PC-3; 0.0111 µM (active) in the assay on RXF 393; 0.0638 µM (active) in the assay on SF-268; 0.0604 µM (active) in the assay on SNB-19; < 0.01 µM (active) in the assay with TK-10; 0.0188 µM (active) in the assay on U-251.

With `C=CCn1c(N)c(C#N)c(C#N)c1CCC`, the GI50 in the assay with BT-549 was > 100 µM (inactive); in the assay on CAKI-1 it was > 100 µM (inactive); with CCRF-CEM it was > 100 µM (inactive); with COLO 205 it was > 100 µM (inactive); with HCC 2998 it was > 100 µM (inactive); with HCT-15, above 100 µM. The GI50 in the assay on HL-60, in the assay on HOP-92, with IGROV-1, in the assay on K562, with MCF7 and in the assay with MDA-MB-231 was > 100 µM (inactive) each time. Besides, the GI50 was 43.2 µM (inactive) in the assay with MOLT-4; > 100 µM (inactive) in the assay on OVCAR-4; > 100 µM (inactive) with PC-3; > 100 µM (inactive) in the assay with RXF 393; > 100 µM (inactive) in the assay with SF-268; > 100 µM (inactive) with SNB-19. Also, the GI50 in the assay on TK-10 and in the assay on U-251 was > 100 µM (inactive) each time.

With `O=[N+]([O-])c1ccccc1S(=O)(=O)N1CCCc2cc(Cl)ccc21`, the GI50 with BT-549 was 8.91 µM (inactive); in the assay with CAKI-1 it was > 100 µM (inactive); in the assay on CCRF-CEM, 8.91 µM (inactive); in the assay on COLO 205 it was 38.7 µM (inactive); in the assay on HCC 2998 it was 38 µM (inactive); in the assay with HCT-15, 15.5 µM. Further, the GI50 in the assay with HL-60 is 6.3 µM (inactive); in the assay with HOP-92, 21.5 µM (inactive); with IGROV-1, 39 µM (inactive); in the assay on K562, 3.46 µM (inactive); with MCF7 it was 28.2 µM (inactive); with MDA-MB-231 it was > 56.5 µM (inactive). Further, the GI50 was 6.35 µM (inactive) in the assay with MOLT-4; > 100 µM (inactive) in the assay on OVCAR-4; 18 µM (inactive) in the assay with PC-3; 13.8 µM (inactive) in the assay on RXF 393; > 68.1 µM (inactive) with SF-268; > 80.2 µM (inactive) in the assay on SNB-19. The GI50 with TK-10 is > 100 µM (inactive).

In the case of `O=C1OCC(O)=C1C(c1ccc(Cl)cc1)c1cc2c(cc1O)OCO2` (stereo not given), the GI50 in the assay on BT-549 is > 100 µM (inactive); in the assay with CAKI-1, > 100 µM (inactive); in the assay with CCRF-CEM it was > 100 µM (inactive); with COLO 205, > 100 µM (inactive); in the assay with HCC 2998, > 100 µM (inactive); with HCT-15, above 100 µM. In addition, the GI50 in the assay with HL-60, with HOP-92, with IGROV-1, in the assay on K562, in the assay on MCF7 and in the assay on MDA-MB-231 was > 100 µM (inactive) in each case. Besides, the GI50 with MOLT-4, in the assay with OVCAR-4, in the assay with PC-3, in the assay on RXF 393, with SF-268 and in the assay with SNB-19 was > 100 µM (inactive) each time. The GI50 with TK-10 was > 100 µM (inactive).
